Measured values as given in patent US7094909B2, “HIV protease inhibitors, compositions containing the same, their pharmaceutical uses and materials for their synthesis” (priority 2001, dated 2006).

Assays:
[1] = biological target: T1, HIV-1 protease (Q7S mutant form) (Human immunodeficiency virus type 1 group M subtype B, UniProt P04585, Q495S); test: HIV-1 Protease RET assay; format: biochemical; details: Ave. Ki (nM), RET assay, Q7S enzyme, Morrison tight binding fit
T1 construct: made in house
Procedure, shortened: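 Ki values fitted with the Morrison tight-binding equation from steady-state RET cleavage (ex 340, em 490 nm) of 5 μM RE(EDANS)SQNYPIVQK(DABCYL)R. Buffer pH 4.8 acetate, 1M NaCl, 5 mM DTT, 1 mg/ml BSA, 10% DMSO; 2 nM Q7S mutant dimer, 37 °C, 12 min.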

[2] = system: HIV-1 (HIV-1 RF, HIV-1 NL4-3) in CEM-SS / MT-2 cells; test: Cytopathic effect (CPE) inhibition assay (XTT/MTT dye reduction); format: cell-based; details: Human immunodeficiency virus 1, NL43; read-out: Ave CPE EC50
Experimental: T-cell lines, CEM-SS, and MT-2, and viruses HIV-1 RF and HIV-1 NL4-3 (pNL4-3) were obtained from the National Institutes of Health (AIDS Research and Reference Reagent Program, Bethesda, Md.).
Cytopathic Effect (CPE) Inhibition Assays
The ability of compounds to protect cells against HIV infection was measured by the […] dye reduction method, essentially as described (See Pauwels, R. Balzarini, J. Baba, M. Snoeck, R. Schols, D. Herdewijn, P. Desmyter, J. and De Clercq, E. 1988, “Rapid and automated tetrazolium-based colorimetric assay for the detection of anti-HIV compounds,”. J Virol. Methods., 20: 309–321 and Weislow, O. S. Kiser, R. Fine, D. L. Bader, J. Shoemaker, R. H. and Boyd, M. R. 1989. “New soluble-formazan assay for HIV-1 cytopathic effects: application to high-flux screening of synthetic and natural products for AIDS-antiviral activity”. J. Natl. Cancer Inst. 81:577–586). Subject cells were infected with test virus at an moi of 0.025 to 0.819 or mock infected with medium only and added at 2×10^4 cells per well into 96 well plates containing half-log dilutions of test compounds. Six days later, 50 μl of XTT (1 mg/ml XTT tetrazolium, 0.02 nM phenazine methosulfate) was added to the wells and the plate was reincubated for four hours. Viability, as determined by the amount of XTT formazan produced, was quantified spectrophotometrically by absorbance at 450 nm. Data from CPE assays were expressed as the percent of formazan produced in compound-treated cells compared to formazan produced in wells of uninfected, compound-free cells. The fifty percent effective concentration (EC50) was calculated as the concentration of compound that effected an increase in the percentage of formazan production in infected, compound-treated cells to 50% of that produced by uninfected, compound-free cells. The 50% cytotoxicity concentration (CC50) was calculated as the concentration of compound that decreased the percentage of formazan produced in uninfected, compound-treated cells to 50% of that produced in uninfected, compound-free cells. The therapeutic index was calculated by dividing the cytotoxicity (CC50) by the antiviral activity (EC50).

Cc1c(O)cccc1C(=O)N[C@@H](Cc1ccccc1)[C@H](O)C(=O)N1CSC(C)(C)[C@H]1C(=O)NCc1ccncc1 [Example A8, (R)-3-((2S,3S)-2-Hydroxy-3-{[1l-(3-hydroxy-2-methyl-phenyl)-methanoyl]-amino}-4-phenyl-butanoyl)-5,5-dimethyl-thiazolidine-4-carboxylic acid (pyridin-4-ylmethyl)-amide]
Ki [1]: 1.4 nM
EC50 [2]: 451 nM

Cc1c(O)cccc1C(=O)N[C@@H](Cc1ccccc1)[C@H](O)C(=O)N1CSC(C)(C)[C@H]1C(=O)NCc1cccc2ccccc12 [Example A11, (R)-3-((2S,3S)-2-Hydroxy-3-{[1-(3-hydroxy-2-methyl-phenyl)-methanoyl]-amino}-4-phenyl-butanoyl)-5,5-dimethyl-thiazolidine-4-carboxylic acid (naphthalen-1-ylmethyl)-amide]
Ki [1]: 0.5 nM
EC50 [2]: 144 nM

Cc1c(O)cccc1C(=O)N[C@@H](Cc1ccccc1)[C@H](O)C(=O)N1CSC(C)(C)[C@H]1C(=O)NCc1csc2ccc(Cl)cc12 [Example A24, (R)-3-((2S,3S)-2-Hydroxy-3-{[1-(3-hydroxy-2-methyl-phenyl)-methanoyl]-amino}-4-phenyl-butanoyl)-5,5-dimethyl-thiazolidine-4-carboxylic acid (5-chloro-benzo[b]thiophen-3-ylmethyl)-amide]
Ki [1]: 0.52 nM
EC50 [2]: 466 nM

Cc1c(O)cccc1C(=O)N[C@@H](Cc1ccccc1)[C@H](O)C(=O)N1CSC(C)(C)[C@H]1C(=O)NC1CC1 [Example A25, (R)-3-((2S,3S)-2-Hydroxy-3-{[1-(3-hydroxy-2-methyl-phenyl)-methanoyl]-amino}-4-phenyl-butanoyl)-5,5-dimethyl-thiazolidine-4-carboxylic acid cyclopropylamide]
Ki [1]: 0.97 nM
EC50 [2]: 125 nM

Cc1c(O)cccc1C(=O)N[C@@H](Cc1ccccc1)[C@H](O)C(=O)N1CSC(C)(C)[C@H]1C(=O)NC1CCC1 [Example A26, (R)-3-((2S,3S)-2-Hydroxy-3-{[1-(3-hydroxy-2-methyl-phenyl)-methanoyl]-amino}-4-phenyl-butanoyl)-5,5-dimethyl-thiazolidine-4-carboxylic acid cyclobutylamide]
Ki [1]: 0.6 nM
EC50 [2]: 168 nM

Cc1c(O)cccc1C(=O)N[C@@H](Cc1ccccc1)[C@H](O)C(=O)N1CSC(C)(C)[C@H]1C(=O)NC1CCCC1 [Example A27, (R)-3-((2S,3S)-2-Hydroxy-3-{[1-(3-hydroxy-2-methyl-phenyl)-methanoyl]-amino}-4-phenyl-butanoyl)-5,5-dimethyl-thiazolidine-4-carboxylic acid cyclopentylamide]
Ki [1]: < 0.1 nM
EC50 [2]: 110 nM

Cc1c(O)cccc1C(=O)N[C@@H](Cc1ccccc1)[C@H](O)C(=O)N1CSC(C)(C)[C@H]1C(=O)N1CCOCC1 [Example A30]
Ki [1]: 10.9 nM
EC50 [2]: 586 nM

Cc1c(O)cccc1C(=O)N[C@@H](Cc1ccccc1)[C@H](O)C(=O)N1CSC(C)(C)[C@H]1C(=O)NC1CCCCCC1 [Example A31, (R)-3-((2S,3S)-2-Hydroxy-3-{[1-(3-hydroxy-2-methyl-phenyl)-methanoyl]-amino}-4-phenyl-butanoyl)-5,5-dimethyl-thiazolidine-4-carboxylic acid cycloheptylamide]
Ki [1]: 0.44 nM
EC50 [2]: 62 nM

Cc1c(O)cccc1C(=O)N[C@@H](Cc1ccccc1)[C@H](O)C(=O)N1CSC(C)(C)[C@H]1C(=O)N1CCSCC1 [Example A33, N-{(1S,2S)-1-Benzyl-3-[(R)-5,5-dimethyl-4-(1-thiomorpholin-4-yl-methanoyl)-thiazolidin-3-yl]-2-hydroxy-3-oxo-propyl}-3-hydroxy-2-methyl-benzamide]
Ki [1]: 5.1 nM
EC50 [2]: 749 nM

Cc1c(O)cccc1C(=O)N[C@@H](Cc1ccccc1)[C@H](O)C(=O)N1CSC(C)(C)[C@H]1C(=O)N1CCCCC1 [Example A34, N-{(1S,2S)-1-Benzyl-3-[(R)-5,5-dimethyl-4-(1-piperidin-1-yl-methanoyl)-thiazolidin-3-yl]-2-hydroxy-3-oxo-propyl}-3-hydroxy-2-methyl-benzamide]
Ki [1]: 1.4 nM
EC50 [2]: 386 nM

Cc1c(O)cccc1C(=O)N[C@@H](Cc1ccccc1)[C@H](O)C(=O)N1CSC(C)(C)[C@H]1C(=O)NC[C@@H]1CCCO1 [Example A37, (R)-3-((2S,3S)-2-Hydroxy-3-{[1-(3-hydroxy-2-methyl-phenyl)-methanoyl]-amino}-4-phenyl-butanoyl)-5,5-dimethyl-thiazolidine-4-carboxylic acid (tetrahydro-furan-2-ylmethyl)-amide]
Ki [1]: 3.7 nM
EC50 [2]: 416 nM

Cc1c(O)cccc1C(=O)N[C@@H](Cc1ccccc1)[C@H](O)C(=O)N1CSC(C)(C)[C@H]1C(=O)N[C@@H]1CCCc2ncccc21 [Example A43, 3-[2-Hydroxy-3-(3-hydroxy-2-methyl-benzoylamino)-4-phenyl-butyryl]-5,5-dimethyl-thiazolidine-4-carboxylic acid (5,6,7,8-tetrahydro-quinolin-5-yl)-amide]
Ki [1]: 2.6 nM
EC50 [2]: 534 nM

Cc1c(O)cccc1C(=O)N[C@@H](Cc1ccccc1)[C@H](O)C(=O)N1CSC(C)(C)[C@H]1C(=O)NCc1n[nH]c2ccccc12 [Example A44, 3-(2-Hydroxy-3-{[1-(3-hydroxy-2-methyl-phenyl)-methanoyl]-amino}-4-phenyl-butanoyl)-5,5-dimethyl-thiazolidine-4-carboxylic acid (1H-indazol-3-ylmethyl)-amide]
Ki [1]: 1.4 nM
EC50 [2]: 478 nM

Cc1c(O)cccc1C(=O)N[C@@H](Cc1ccccc1)[C@H](O)C(=O)N1CSC(C)(C)[C@H]1C(=O)NCC1CCOC1 (stereo partly drawn) [Example A46, (R)-3-((2S,3S)-2-Hydroxy-3-{[1-(3-hydroxy-2-methyl-phenyl)-methanoyl]-amino}-4-phenyl-butanoyl)-5,5-dimethyl-thiazolidine-4-carboxylic acid (tetrahydro-furan-3-ylmethyl)-amide]
Ki [1]: 1.1 nM
EC50 [2]: 469 nM

Cc1c(O)cccc1C(=O)N[C@@H](Cc1ccccc1)[C@H](O)C(=O)N1CSC(C)(C)[C@H]1C(=O)N[C@@H]1CCCc2occc21 [Example A47, 3-[2-Hydroxy-3-(3-hydroxy-2-methyl-benzoylamino)-4-phenyl-butyryl]-5,5-dimethyl-thiazolidine-4-carboxylic acid (4,5,6,7-tetrahydro-benzofuran-4-yl)-amide]
Ki [1]: 0.27 nM
EC50 [2]: 196 nM

Cc1c(O)cccc1C(=O)N[C@@H](Cc1ccccc1)[C@H](O)C(=O)N1CSC(C)(C)[C@H]1C(=O)N[C@@H]1CCCc2sccc21 [Example A49, 3-[2-Hydroxy-3-(3-hydroxy-2-methyl-benzoylamino)-4-phenyl-butyryl]-5,5-dimethyl-thiazolidine-4-carboxylic acid (4,5,6,7-tetrahydro-benzo[b]thiophen-4-yl)-amide]
Ki [1]: 0.49 nM
EC50 [2]: 161 nM

Cc1c(O)cccc1C(=O)N[C@@H](Cc1ccccc1)[C@H](O)C(=O)N1CSC(C)(C)[C@H]1C(=O)N[C@@H]1CCc2ncccc21 [Example A52, 3-[2-Hydroxy-3-(3-hydroxy-2-methyl-benzoylamine)-4-phenyl-butyryl]-5,5-dimethyl-thiazolidine-4-carboxylic acid (6,7-dihydro-5H-[1]pyrindin-5-yl)-amide]
Ki [1]: 0.51 nM
EC50 [2]: 456 nM

Cc1c(O)cccc1C(=O)N[C@@H](Cc1ccccc1)[C@H](O)C(=O)N1CSC(C)(C)[C@H]1C(=O)NCc1oc2ccccc2c1C [Example A54, (R)-3-[(2S,3S)-2-Hydroxy-3-(3-hydroxy-2-methyl-benzoylamino)-4-phenyl-butyryl]-5,5-dimethyl-thiazolidine-4-carboxylic acid (3-methyl-benzofuran-2-ylmethyl)-amide]
Ki [1]: 4.5 nM
EC50 [2]: 1230 nM

Cc1c(O)cccc1C(=O)N[C@@H](Cc1ccccc1)[C@H](O)C(=O)N1CSC(C)(C)[C@H]1C(=O)NN(C)c1ccccc1 [Example A57, N-{(1S,2S)-1-Benzyl-3-[(R)-5,5-dimethyl-4-(N′-methyl-N′-phenyl-hydrazinocarbonyl)-thiazolidin-3-yl]-2-hydroxy-3-oxo-propyl}-3-hydroxy-2-methyl-benzamide]
Ki [1]: 5.6 nM
EC50 [2]: 1530 nM
